What was measured:
[1] = test system: Human immunodeficiency virus type 1 integrase (Human immunodeficiency virus 1), Q7ZJM1 [N155H]; experiment: Inhibition of HIV recombinant integrase N155H mutant assessed as strand transfer activity using U5 GdCA LTR by scintillation proximity assay relative to wild type LTR; set-up: scale not given: the % may be the effect or the level left; conditions: tested as the 3H-labelled form
[2] = test system: Human immunodeficiency virus; experiment: Binding affinity to HIV wild type integrase using U5 GTCA/C LTR relative to wild type LTR; conditions: tested as the 3H-labelled form
[3] = test system: Human immunodeficiency virus type 1 integrase (Human immunodeficiency virus 1), Q7ZJM1 [Q148R]; experiment: Inhibition of U5 GTCA LTR HIV recombinant integrase Q148R mutant assessed as specific strand transfer activity using by scintillation proximity assay relative to wild type LTR; set-up: scale not given: the % may be the effect or the level left; conditions: tested as the 3H-labelled form
[4] = test system: Human immunodeficiency virus; experiment: Binding affinity to HIV wild type integrase using U5 GTTA LTR relative to wild type LTR; conditions: tested as the 3H-labelled form
[5] = test system: Human immunodeficiency virus type 1 integrase (Human immunodeficiency virus 1), Q7ZJM1 [N155H]; experiment: Inhibition of HIV recombinant integrase N155H mutant assessed as specific strand transfer activity using U5 dTCA LTR by scintillation proximity assay relative to wild type LTR; set-up: scale not given: the % may be the effect or the level left; conditions: tested as the 3H-labelled form
[6] = test system: Human immunodeficiency virus; experiment: Inhibition of HIV wild type integrase assessed as specific strand transfer activity using U5 GTC LTR by scintillation proximity assay relative to wild type LTR; set-up: scale not given: the % may be the effect or the level left; conditions: tested as the 3H-labelled form
[7] = test system: Human immunodeficiency virus; experiment: Inhibition of HIV wild type integrase assessed as strand transfer activity using U5 GTC LTR by scintillation proximity relative; set-up: scale not given: the % may be the effect or the level left; conditions: tested as the 3H-labelled form
[8] = test system: Human immunodeficiency virus; experiment: Inhibition of HIV wild type integrase assessed as strand transfer activity using U5 dTCA LTR by scintillation proximity assay relative to wild type LTR; set-up: scale not given: the % may be the effect or the level left; conditions: tested as the 3H-labelled form
[9] = test system: Human immunodeficiency virus; experiment: Binding affinity to U5 GTCT LTR HIV wild type integrase using U5 GTCT LTR relative to wild type LTR; conditions: tested as the 3H-labelled form
[10] = test system: Human immunodeficiency virus; experiment: Binding affinity to HIV wild type integrase using U5 GTCA/CG LTR relative to wild type LTR; conditions: tested as the 3H-labelled form
[11] = test system: Human immunodeficiency virus; experiment: Inhibition of HIV wild type integrase assessed as strand transfer activity usingU5 GTCA/CT LTR by scintillation proximity assay relative to wild type LTR; set-up: scale not given: the % may be the effect or the level left; conditions: tested as the 3H-labelled form
[12] = test system: Human immunodeficiency virus; experiment: Inhibition of HIV wild type integrase assessed as strand transfer activity using U5 INTCA LTR by scintillation proximity assay relative to wild type LTR; set-up: scale not given: the % may be the effect or the level left; conditions: tested as the 3H-labelled form
[13] = test system: Human immunodeficiency virus; experiment: Binding affinity to HIV wild type integrase using U5 ApTCA LTR relative to wild type LTR; conditions: tested as the 3H-labelled form
[14] = test system: Human immunodeficiency virus; experiment: Binding affinity to HIV wild type integrase using U5 GTCC LTR relative to wild type LTR; conditions: tested as the 3H-labelled form
[15] = test system: Human immunodeficiency virus; experiment: Binding affinity to HIV wild type integrase using U5 ATCA LTR relative to wild type LTR; conditions: tested as the 3H-labelled form
[16] = test system: Human immunodeficiency virus; experiment: Binding affinity to HIV wild type integrase using U5 GACA LTR relative to wild type LTR; conditions: tested as the 3H-labelled form
[17] = test system: Human immunodeficiency virus; experiment: Inhibition of HIV wild type integrase assessed as strand transfer activity using U5 GTdA LTR by scintillation proximity assay relative to wild type LTR; set-up: scale not given: the % may be the effect or the level left; conditions: tested as the 3H-labelled form
[18] = test system: Human immunodeficiency virus; experiment: Inhibition of HIV wild type integrase assessed as strand transfer activity using U5 GTCACA LTR by scintillation proximity assay relative to wild type LTR; set-up: scale not given: the % may be the effect or the level left; conditions: tested as the 3H-labelled form
[19] = test system: Human immunodeficiency virus; experiment: Inhibition of HIV wild type integrase assessed as strand transfer activity using U5 GTTC LTR by scintillation proximity assay relative to wild type LTR; set-up: scale not given: the % may be the effect or the level left; conditions: tested as the 3H-labelled form
[20] = test system: Human immunodeficiency virus; experiment: Binding affinity to HIV wild type integrase using U5 GTGT LTR relative to wild type LTR; conditions: tested as the 3H-labelled form
[21] = test system: Human immunodeficiency virus; experiment: Inhibition of HIV wild type integrase assessed as strand transfer activity using U5 GdC LTR by scintillation proximity assay relative to wild type LTR; set-up: scale not given: the % may be the effect or the level left; conditions: tested as the 3H-labelled form
[22] = test system: Human immunodeficiency virus type 1 integrase (Human immunodeficiency virus 1), Q7ZJM1 [Q148R]; experiment: Inhibition of U5 GdCA LTR HIV recombinant integrase Q148R mutant assessed as specific strand transfer activity using by scintillation proximity assay relative to wild type LTR; set-up: scale not given: the % may be the effect or the level left; conditions: tested as the 3H-labelled form
[23] = test system: Human immunodeficiency virus; experiment: Binding affinity to HIV wild type integrase using U5 GTC LTR relative to wild type LTR; conditions: tested as the 3H-labelled form
[24] = test system: Human immunodeficiency virus; experiment: Inhibition of HIV wild type integrase assessed as specific strand transfer activity using U5 GInCA LTR by scintillation proximity assay relative to wild type LTR; set-up: scale not given: the % may be the effect or the level left; conditions: tested as the 3H-labelled form
[25] = test system: Human immunodeficiency virus; experiment: Inhibition of HIV wild type integrase assessed as strand transfer activity using U5 GTAG LTR by scintillation proximity assay relative to wild type LTR; set-up: scale not given: the % may be the effect or the level left; conditions: tested as the 3H-labelled form
[26] = test system: Human immunodeficiency virus; experiment: Binding affinity to HIV wild type integrase using U5 GTCAGT LTR relative to wild type LTR; conditions: tested as the 3H-labelled form
[27] = test system: Human immunodeficiency virus; experiment: Inhibition of HIV wild type integrase assessed as strand transfer activity using U5 GTCAGT LTR by scintillation proximity assay relative to wild type LTR; set-up: scale not given: the % may be the effect or the level left; conditions: tested as the 3H-labelled form
[28] = test system: Human immunodeficiency virus type 1 integrase (Human immunodeficiency virus 1), Q7ZJM1 [N155H]; experiment: Inhibition of HIV recombinant integrase N155H mutant assessed as strand transfer activity using U5 GTdA LTR by scintillation proximity assay relative to wild type LTR; set-up: scale not given: the % may be the effect or the level left; conditions: tested as the 3H-labelled form
[29] = test system: Human immunodeficiency virus; experiment: Inhibition of HIV wild type integrase assessed as specific strand transfer activity using U5 GTGA LTR by scintillation proximity assay relative to wild type LTR; set-up: scale not given: the % may be the effect or the level left; conditions: tested as the 3H-labelled form
[30] = test system: Human immunodeficiency virus type 1 integrase (Human immunodeficiency virus 1), Q7ZJM1 [N155H]; experiment: Inhibition of HIV recombinant integrase N155H mutant assessed as strand transfer activity using U5 GTCA LTR by scintillation proximity assay relative to wild type LTR; set-up: scale not given: the % may be the effect or the level left; conditions: tested as the 3H-labelled form
[31] = test system: Human immunodeficiency virus type 1 integrase (Human immunodeficiency virus 1), Q7ZJM1 [Q148R]; experiment: Binding affinity to HIV recombinant integrase Q148R mutant using U5 GTC LTR relative to wild type LTR; conditions: tested as the 3H-labelled form
[32] = test system: Human immunodeficiency virus type 1 integrase (Human immunodeficiency virus 1), Q7ZJM1 [N155H]; experiment: Inhibition of HIV recombinant integrase N155H mutant assessed as specific strand transfer activity using U5 GTC LTR by scintillation proximity assay relative to wild type LTR; set-up: scale not given: the % may be the effect or the level left; conditions: tested as the 3H-labelled form
[33] = test system: Human immunodeficiency virus; experiment: Inhibition of U5 GddA LTR HIV wild type integrase assessed as strand transfer activity using by scintillation proximity assay relative to wild type LTR; set-up: scale not given: the % may be the effect or the level left; conditions: tested as the 3H-labelled form
[34] = test system: Human immunodeficiency virus type 1 integrase (Human immunodeficiency virus 1), Q7ZJM1 [N155H]; experiment: Binding affinity to HIV recombinant integrase N155H mutant using U5 GddA LTR relative to wild type LTR; conditions: tested as the 3H-labelled form
[35] = test system: Human immunodeficiency virus type 1 integrase (Human immunodeficiency virus 1), Q7ZJM1 [N155H]; experiment: Inhibition of HIV recombinant integrase N155H mutant assessed as specific strand transfer activity using U5 GTdA LTR by scintillation proximity assay relative to wild type LTR; set-up: scale not given: the % may be the effect or the level left; conditions: tested as the 3H-labelled form
[36] = test system: Human immunodeficiency virus; experiment: Binding affinity to HIV wild type integrase using U5 GTCA/CT LTR relative to wild type LTR; conditions: tested as the 3H-labelled form
[37] = test system: Human immunodeficiency virus type 1 integrase (Human immunodeficiency virus 1), Q7ZJM1 [Q148R]; experiment: Inhibition of U5 INTCA LTR HIV recombinant integrase Q148R mutant assessed as specific strand transfer activity using by scintillation proximity assay relative to wild type LTR; set-up: scale not given: the % may be the effect or the level left; conditions: tested as the 3H-labelled form
[38] = Inhibition of HIV wild type integrase DNA complex; set-up: species or system Human immunodeficiency virus
[39] = test system: Human immunodeficiency virus; experiment: Binding affinity to HIV wild type integrase using U5 dTCA LTR relative to wild type LTR; conditions: tested as the 3H-labelled form
[40] = test system: Human immunodeficiency virus; experiment: Inhibition of HIV wild type integrase assessed as specific strand transfer activity using U5 ApTCA LTR by scintillation proximity assay relative to wild type LTR; set-up: scale not given: the % may be the effect or the level left; conditions: tested as the 3H-labelled form
[41] = test system: Human immunodeficiency virus; experiment: Binding affinity to HIV wild type integrase using U5 GTAA LTR relative to wild type LTR; conditions: tested as the 3H-labelled form
[42] = test system: Human immunodeficiency virus type 1 integrase (Human immunodeficiency virus 1), Q7ZJM1 [Q148R]; experiment: Binding affinity to HIV recombinant integrase Q148R mutant using U5 INTCA LTR relative to wild type LTR; conditions: tested as the 3H-labelled form
[43] = test system: Human immunodeficiency virus type 1 integrase (Human immunodeficiency virus 1), Q7ZJM1 [Q148R]; experiment: Inhibition of HIV recombinant integrase Q148R mutant assessed as strand transfer activity using U5 GTC LTR by scintillation proximity assay relative to wild type LTR; set-up: scale not given: the % may be the effect or the level left; conditions: tested as the 3H-labelled form
[44] = test system: Human immunodeficiency virus type 1 integrase (Human immunodeficiency virus 1), Q7ZJM1 [Q148R]; experiment: Inhibition of U5 ApTCA LTR HIV recombinant integrase Q148R mutant assessed as specific strand transfer activity using by scintillation proximity assay relative to wild type LTR; set-up: scale not given: the % may be the effect or the level left; conditions: tested as the 3H-labelled form

Cn1c(N2CCCCS2(=O)=O)nc(C(=O)NCc2ccc(F)cc2)c(O)c1=O [BMS-707035]
Activity [1]: 33% | Activity [2]: < 25% | Activity [3]: 93% | Activity [4]: 51% | Activity [5]: > 40% | Activity [6]: 100% | Activity [7]: 109% | Activity [8]: 10% | Activity [9]: 75% | Activity [10]: 25% | Activity [11]: < 25% | Activity [12]: 45% | Activity [13]: 24% | Activity [14]: 75% | Activity [15]: < 25% | Activity [16]: 25% | Activity [17]: 32% | Activity [18]: 75% | Activity [19]: 25% | Activity [20]: 25% | Activity [21]: 10% | Activity [22]: 3% | Activity [23]: 59% | Activity [24]: 115% | Activity [25]: < 25% | Activity [26]: 75% | Activity [27]: 75% | Activity [28]: 17% | Activity [29]: 136% | Activity [30]: 84% | Activity [31]: 5% | Activity [32]: 107% | Activity [33]: 1% | Activity [34]: 9% | Activity [35]: 35% | Activity [36]: < 25% | Activity [37]: > 12% | Ki [38]: 17 nM | Activity [39]: 15% | Activity [40]: 40% | Activity [41]: 22% | Activity [42]: 2% | Activity [43]: 19% | Activity [44]: > 8%

Reference: ChEMBL document CHEMBL1156506, “Changes to the HIV long terminal repeat and to HIV integrase differentially impact HIV integrase assembly, activity, and the binding of strand transfer inhibitors” (J Biol Chem, 2007)
